Data on 24 molecules can be found in patent US20030186967A1, “Acylresorcinol derivatives are selective vitronectin receptor inhibitors” (American Home Products Corporation, priority 1998, published 2003).

The target of the assay is T1, Vitronectin receptor αVβ3 (Homo sapiens, UniProt P05106+P06756).
T1 construct: expressed in transfected cells; host or cells: 512P5 cells (plasma membrane preparation)
In words: Vitronectin Receptor αVβ3 Binding Assay. Particulars: read-out: VnR (IC50μM).

T1 sequence (P06756 31-889 limits assumed): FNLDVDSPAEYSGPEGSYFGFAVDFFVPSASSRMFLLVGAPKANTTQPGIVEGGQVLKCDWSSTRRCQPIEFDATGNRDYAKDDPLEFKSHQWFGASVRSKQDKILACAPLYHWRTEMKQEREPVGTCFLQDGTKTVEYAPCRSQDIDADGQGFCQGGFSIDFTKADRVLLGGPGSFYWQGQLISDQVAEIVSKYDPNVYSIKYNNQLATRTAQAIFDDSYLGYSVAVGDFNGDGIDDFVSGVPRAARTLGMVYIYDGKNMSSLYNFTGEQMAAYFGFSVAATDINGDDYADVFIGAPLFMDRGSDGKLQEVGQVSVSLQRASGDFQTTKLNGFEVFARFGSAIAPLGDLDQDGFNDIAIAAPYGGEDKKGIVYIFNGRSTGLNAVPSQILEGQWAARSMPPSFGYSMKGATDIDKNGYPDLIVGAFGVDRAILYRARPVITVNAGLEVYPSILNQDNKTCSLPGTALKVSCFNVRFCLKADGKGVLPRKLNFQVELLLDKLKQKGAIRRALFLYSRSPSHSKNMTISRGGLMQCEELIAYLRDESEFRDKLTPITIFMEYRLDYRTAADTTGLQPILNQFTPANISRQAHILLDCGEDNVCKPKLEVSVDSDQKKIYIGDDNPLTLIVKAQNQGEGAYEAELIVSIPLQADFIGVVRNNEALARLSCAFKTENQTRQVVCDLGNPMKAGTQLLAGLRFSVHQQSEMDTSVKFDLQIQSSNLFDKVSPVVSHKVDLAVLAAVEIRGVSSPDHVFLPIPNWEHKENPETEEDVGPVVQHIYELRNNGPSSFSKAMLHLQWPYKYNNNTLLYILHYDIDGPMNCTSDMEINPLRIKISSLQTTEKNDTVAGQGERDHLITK
T1 sequence (P06756 891-1048 partner limits assumed): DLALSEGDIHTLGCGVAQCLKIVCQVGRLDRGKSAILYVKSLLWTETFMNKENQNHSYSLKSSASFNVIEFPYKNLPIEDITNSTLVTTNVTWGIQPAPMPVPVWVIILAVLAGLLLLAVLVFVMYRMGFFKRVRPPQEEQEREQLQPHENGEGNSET
T1 sequence (P05106 27-788): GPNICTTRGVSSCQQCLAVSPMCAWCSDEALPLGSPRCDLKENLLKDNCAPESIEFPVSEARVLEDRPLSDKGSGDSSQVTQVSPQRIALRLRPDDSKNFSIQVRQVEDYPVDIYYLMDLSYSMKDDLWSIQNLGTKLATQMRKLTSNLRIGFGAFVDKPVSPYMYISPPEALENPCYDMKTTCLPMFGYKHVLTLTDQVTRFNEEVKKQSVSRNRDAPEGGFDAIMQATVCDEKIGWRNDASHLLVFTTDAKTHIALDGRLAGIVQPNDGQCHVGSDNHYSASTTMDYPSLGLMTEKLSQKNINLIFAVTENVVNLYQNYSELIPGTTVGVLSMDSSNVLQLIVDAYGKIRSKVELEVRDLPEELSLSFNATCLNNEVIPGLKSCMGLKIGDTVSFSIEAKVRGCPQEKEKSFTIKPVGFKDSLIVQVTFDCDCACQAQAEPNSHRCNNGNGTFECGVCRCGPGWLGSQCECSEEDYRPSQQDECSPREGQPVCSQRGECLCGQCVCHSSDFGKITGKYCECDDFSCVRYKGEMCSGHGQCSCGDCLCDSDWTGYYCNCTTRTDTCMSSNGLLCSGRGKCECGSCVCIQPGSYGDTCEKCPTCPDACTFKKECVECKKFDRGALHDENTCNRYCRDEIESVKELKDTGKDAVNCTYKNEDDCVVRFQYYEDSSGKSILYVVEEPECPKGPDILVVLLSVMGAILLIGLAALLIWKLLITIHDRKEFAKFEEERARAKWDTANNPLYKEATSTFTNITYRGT

On to `COC(=O)N[C@@H](CNC(=O)c1ccc(OCCNC(=N)N)cc1O)C(=O)O` [Example 158, (2S)-3-{[4-(2-{[amino(imino)methyl]amino)ethoxy)-2-hydroxybenzoyl]amino}-2-[(methoxycarbonyl)amino]propanoic acid], for which the IC50 is 4.6 µM. On to `CCOC(=O)N[C@@H](CNC(=O)c1ccc(OCCNC(=N)N)cc1O)C(=O)O` [Example 159, (2S)-3-{[4-(2-{[amino(imino)methyl]amino)ethoxy)-2-hydroxybenzoyl]amino}-2-[(ethoxycarbonyl)amino]propanoic acid], for which the IC50 came to 2 µM. Consider `CCCOC(=O)N[C@@H](CNC(=O)c1ccc(OCCNC(=N)N)cc1O)C(=O)O` [Example 160, (2S)-3-{[4-(2-{[amino(imino)methyl]amino}ethoxy)-2-hydroxybenzoyl]amino}-2-[(propoxycarbonyl)amino]propanoic acid], for which the IC50 amounted to 0.97 µM. For the molecule `CC(C)OC(=O)N[C@@H](CNC(=O)c1ccc(OCCNC(=N)N)cc1O)C(=O)O` [Example 161, (2S)-3-{[4-(2-{[amino(imino)methyl]amino}ethoxy)-2-hydroxybenzoyl]amino}-2-[(isopropoxycarbonyl)amino]propanoic acid], the IC50 stood at 0.9 µM. `C=CCOC(=O)N[C@@H](CNC(=O)c1ccc(OCCNC(=N)N)cc1O)C(=O)O` [Example 162]: the IC50 was found to be 1.1 µM. Turning to `C=CCCOC(=O)N[C@@H](CNC(=O)c1ccc(OCCNC(=N)N)cc1O)C(=O)O` [Example 163, (2S)-3-{[4-(2-{[amino(imino)methyl]amino}ethoxy)-2-hydroxybenzoyl]amino}-2-{[(but-3-enyloxy)carbonyl]amino}propanoic acid], the IC50 came out at 1.1 µM. With `CCCCOC(=O)N[C@@H](CNC(=O)c1ccc(OCCNC(=N)N)cc1O)C(=O)O` [Example 164, (2S)-3-{[4-(2-{[amino(imino)methyl]amino}ethoxy)-2-hydroxybenzoyl]amino}-2-[(butoxycarbonyl)amino]propanoic acid] the figure was 0.61 µM; with `N=C(N)NCCOc1ccc(C(=O)NC[C@H](NC(=O)OCC(Cl)(Cl)Cl)C(=O)O)c(O)c1` [Example 165, (2S)-3-{[4-(2-{[amino(imino)methyl]amino}ethoxy)-2-hydroxybenzoyl]amino}-2-{[(2,2,2-trichloroethoxy)carbonyl]amino}propanoic acid], 0.39 µM; with `CCCCCCOC(=O)N[C@@H](CNC(=O)c1ccc(OCCNC(=N)N)cc1O)C(=O)O` [Example 166, (2S)-3-{[4-(2-{[amino(imino)methyl]amino}ethoxy)-2-hydroxybenzoyl]amino}-2-{[(hexyloxy)carbonyl]amino}propanoic acid], 0.8 µM.

On to `C#CCOC(=O)N[C@@H](CNC(=O)c1ccc(OCCNC(=N)N)cc1O)C(=O)O` [Example 167, (2S)-3-{[4-(2-{[amino(imino)methyl]amino}ethoxy)-2-hydroxybenzoyl]amino}-2-{[(prop-2-ynyloxy)carbonyl]amino}propanoic acid], for which the IC50 is 2.6 µM. With `Cc1ccccc1NC(=O)N[C@@H](CNC(=O)c1ccc(OCCNC(=N)N)cc1O)C(=O)O` [Example 173, (2S)-3-{[4-(2-{[amino(imino)methyl]amino}ethoxy)-2-hydroxybenzoyl]amino}-2-[(2-toluidinocarbonyl)amino]propanoic acid] the figure was 4.28 µM; with `COc1ccccc1NC(=O)N[C@@H](CNC(=O)c1ccc(OCCNC(=N)N)cc1O)C(=O)O` [Example 174, (2S)-3-{[4-(2-{[amino(imino)methyl]amino}ethoxy)-2-hydroxybenzoyl]amino}-2-{[(2-methoxyanilino)carbonyl]amino}propanoic acid], 3.89 µM; with `N=C(N)NCCOc1ccc(C(=O)NC[C@H](NC(=O)Nc2ccccc2Cl)C(=O)O)c(O)c1` [Example 175, (2S)-3-{[4-(2-{[amino(imino)methyl]amino}ethoxy)-2-hydroxybenzoyl]amino}-2-{[(2-chloroanilino)carbonyl]amino}propanoic acid], 3.8 µM.

Turning to `N=C(N)NCCOc1ccc(C(=O)NC[C@H](NC(=O)Nc2ccccc2Br)C(=O)O)c(O)c1` [Example 176, (2S)-3-{[4-(2-{[amino(imino)methyl]amino}ethoxy)-2-hydroxybenzoyl]amino}-2-{[(2-bromoanilino)carbonyl]amino}propanoic acid], the IC50 came to 2.14 µM. With `N=C(N)NCCOc1ccc(C(=O)NC[C@H](NC(=O)Nc2ccccc2-c2ccccc2)C(=O)O)c(O)c1` [Example 177], the IC50 was found to be 4.87 µM. With `Cc1ccc(NC(=O)N[C@@H](CNC(=O)c2ccc(OCCNC(=N)N)cc2O)C(=O)O)cc1` [Example 178, (2S)-3-{[4-(2-{[amino(imino)methyl]amino}ethoxy)-2-hydroxybenzoyl]amino}-2-[(4-toluidinocarbonyl)amino]propanoic acid] the figure was 3.13 µM; with `N=C(N)NCCOc1ccc(C(=O)NC[C@H](NC(=O)Nc2ccc(OC(F)(F)F)cc2)C(=O)O)c(O)c1` [Example 179, (2S)-3-{[4-(2-{[amino(imino)methyl]amino}ethoxy)-2-hydroxybenzoyl]amino}-2-({[4-(trifluoromethoxy)anilino]carbonyl}amino)propanoic acid], above 1 µM. Turning to `N=C(N)NCCOc1ccc(C(=O)NC[C@H](NC(=O)Nc2ccc(Cl)cc2)C(=O)O)c(O)c1` [Example 180, (2S)-3-{[4-(2-{[amino(imino)methyl]amino}ethoxy)-2-hydroxybenzoyl]amino}-2-{[(4-chloroanilino)carbonyl]amino}propanoic acid], the IC50 amounted to 19.5 µM.

Regarding `N=C(N)NCCOc1ccc(C(=O)NC[C@H](NC(=O)Nc2ccc(F)cc2)C(=O)O)c(O)c1` [Example 181, (2S)-3-{[4-(2-{[amino(imino)methyl]amino}ethoxy)-2-hydroxybenzoyl]amino}-2-{[(4-fluoroanilino)carbonyl]amino}propanoic acid], the IC50 was 19.7 µM. For `CC(=O)c1ccc(NC(=O)N[C@@H](CNC(=O)c2ccc(OCCNC(=N)N)cc2O)C(=O)O)cc1` [Example 182, (2S)-2-{[(4-acetylanilino)carbonyl]amino}-3-{[4-(2-{[amino(imino)methyl]-amino}ethoxy)-2-hydroxybenzoyl]amino}propanoic acid], the IC50 was determined as 40.9 µM. With `N=C(N)NCCOc1ccc(C(=O)NC[C@H](NC(=O)NC2CCCCC2)C(=O)O)c(O)c1` [Example 183, (2S)-3-{[4-(2-{[amino(imino)methyl]amino}ethoxy)-2-hydroxybenzoyl]amino}-2-{[(cyclohexylamino)carbonyl]amino}propanoic acid], the IC50 amounted to 4.98 µM. As to `N=C(N)NCCOc1ccc(C(=O)NC[C@H](NC(=O)Nc2cccc3ccccc23)C(=O)O)c(O)c1` [Example 184, (2S)-3-{[4-(2-{[amino(imino)methyl]amino}ethoxy)-2-hydroxybenzoyl]amino}-2-{[(1-naphthylamino)carbonyl]amino}propanoic acid], the IC50 stood at 17.9 µM.

For `N=C(N)NCCOc1ccc(C(=O)NC[C@H](NC(=O)NCc2ccccc2)C(=O)O)c(O)c1` [Example 185, (2S)-3-{[4-(2-{[amino(imino)methyl]amino}ethoxy)-2-hydroxybenzoyl]amino}-2-{[(benzylamino)carbonyl]amino}propanoic acid], the IC50 was 4.57 µM. `N=C(N)NCCOc1ccc(C(=O)NC[C@H](NC(=O)NCCc2ccccc2)C(=O)O)c(O)c1` [Example 186]: the IC50 came out at 6.99 µM.
